Results as given in patent US12065434B2, “Metabolites of GLP1R agonists” (Pfizer Inc., priority 2020, dated 2024).

Experiment: Metabolite profiling of pooled human plasma after repeat oral dosing of Compound 1 (HPLC/UV/MS)
Details: for observed as major or minor metabolite in human plasma: Compound 1 120 mg BID, Day 28; for Plasma Extracts: Compound 1 120 mg oral BID, Day 28, HPLC/UV/MS
Experimental: Plasma samples from nine human subjects following oral administration of 120 mg BID for 28 days in a clinical study were examined for metabolites.
Individual subject's plasma (from nine human subjects with 120 mg BID dose Day 28) were pooled in proportion to the time period represented by each to yield a pool for profiling that was representative of the AUC (0-12 hr) according to the method of Hamilton et al. [Hamilton R A, Garnett W R, Kline B J. Determination of a mean valproic acid serum level by assay of a single pooled sample. […] Pooled plasma time points were first prepared by aliquoting equal amounts (1.0 mL) of plasma from each subject prior to making a single Hamilton pool. Blank plasma pools were made by taking equal aliquots of predose samples. To a 2 mL aliquot of each pooled plasma sample was added 6 mL of acetonitrile and then mixed. Protein precipitated samples were centrifuged for 5 minutes at 2000×g and the supernatants were transferred to other clean 15 mL centrifuge tubes. Samples were dried using an evaporative centrifuge set to 37° C. Samples were reconstituted using 0.2 mL of 5:95 acetonitrile:water and analyzed by HPLC/UV/MS.
Reconstituted samples were analyzed by positive ion HPLC/UV/MS using a Thermo Orbitrap Elite mass spectrometer operating in positive ion electrospray mode. Xcalibur software version 3.0.63 was used to control the HPLC/UV/MS system. Full scan data were collected at 15,000 resolution. Data dependent product ion scans of the two most intense ions found in the full scan were obtained at 15,000 resolution. The dynamic exclusion function was used with a 10 second exclusion duration after 3 successive product ion scans with an early exclusion if the precursor ion fell below a signal to noise ratio of 20. The HPLC system consisted of an Accela quaternary solvent delivery pump, an Accela autoinjector, an Accela PDA Plus photodiode array detector (Thermo Electron Corporation). Chromatography was performed on a Phenomenex Kinetex column (2.1 mm×100 mm, 2.6 μm) at 45° C. using a HotSleeve column heater (Analytical Sales and Services). The mobile phase was composed of 0.1% formic acid in water (solvent A) and acetonitrile (solvent B). The solvent delivery gradient program was as follows:

SMILES | observed as major or minor metabolite in human plasma | Plasma Extracts
N#Cc1ccc(COc2cccc(C3(O)CCN(Cc4nc5ccc(C(=O)O)cc5n4C[C@@H]4CCO4)CC3)n2)c(F)c1 [Compound M4, (S)-2-((4-(6-((4-cyano-2-fluorobenzyl)oxy)pyridin-2-yl)-4-hydroxypiperidin-1-yl)methyl)-1-(oxetan-2-ylmethyl)-1H-benzo[d]imidazole-6-carboxylic acid] | – | +
N#Cc1ccc(COc2cccc(C3CCN(Cc4nc5ccc(C(=O)O)cc5n4C[C@@H]4CCO4)CC3)n2)c(F)c1 [Compound 1, 2-[(4-{6-[(4-Cyano-2-fluorobenzyl)oxy]pyridin-2-yl}piperidin-1-yl)methyl]-1-[(2S)-oxetan-2-ylmethyl]-1H-benzimidazole-6-carboxylic acid] | – | +++
N#Cc1ccc(COc2cccc(C(CCO)CCNCc3nc4ccc(C(=O)O)cc4n3C[C@@H]3CCO3)n2)c(F)c1 (stereo partly drawn) [Compound 574a, 2-(((3-(6-((4-cyano-2-fluorobenzyl)oxy)pyridin-2-yl)-5-hydroxypentyl)amino)methyl)-1-(((S)-oxetan-2-yl)methyl)-1H-benzo[d]imidazole-6-carboxylic acid] | minor metabolite | +

Next, values leading:

observed as major or minor metabolite in human plasma | Plasma Extracts | SMILES
minor metabolite | + | N#Cc1ccc(COc2cccc(C3CCN(Cc4nc5ccc(C(=O)O)cc5n4CC(O)CCO)CC3)n2)c(F)c1 (centres unmarked) [Compound 574b, 2-((4-(6-((4-cyano-2-fluorobenzyl)oxy)pyridin-2-yl)piperidin-1-yl)methyl)-1-(2,4-dihydroxybutyl)-1H-benzo[d]imidazole-6-carboxylic acid]
minor metabolite | + | N#Cc1ccc(COc2cccc(C3CCNCC3)n2)c(F)c1 [Compound M3, 3-fluoro-4-(((6-(piperidin-4-yl)pyridin-2-yl)oxy)methyl)benzonitrile]
